Consider 22 compounds from publication PMC10056611, “Synthesis and Biological Evaluation of 3-Amino-4,4-Dimethyl Lithocholic Acid Derivatives as Novel, Selective, and Cellularly Active Allosteric SHP1 Activators” (Molecules, 2023).

Data set [1] addresses SHP1 (Homo sapiens, UniProt P29350). Nature of the data set: SHP1 enzyme assay (DiFMUP fluorogenic substrate), activation. Type of data set: biochemical. As to conditions: DiFMUP assay; mean ± SEM. An excerpt:
The SHP1-activating effects of the synthetic compounds were examined by the 6,8-difluoro-4-methylumbelliferyl phosphate (DiFMUP) assay.
The proteins SHP1 and SHP2, containing a GST-tag, were expressed in E. coli. 6,8-Difluoro-4-methylumbelliferyl phosphate (DiFMUP) was used as the fluorogenic substrate. Fluorescence data were collected by the Envision (PerkinElmer, Waltham, MA, USA) plate reader, using excitation and emission wavelengths of 358 and 455 nm, respectively. A sigmoidal dose-response curve was fitted to the data, and the EC50 values were calculated using GraphPad Prism. In the data processing, the fitting and curves were calculated using nonlinear regression, and the fold value of the compound was calculated using the software GraphPad Prism 8. The folds were obtained according to the equation: Y = Bottom + (Top-Bottom)/(1 + 10^((LogEC50-X) × HillSlope)). The data represent mean values ± standard error of the mean (SEM) of eight-point experiments, each performed in triplicates from three independent experiments.

Structures are written as SMILES. Values joined by “and” are separate entries in the source; they are usually repeats but may differ in a detail not shown here. Identical values can stand only once. A value given as a limit tells only on which side of the number the result lay.

SHP1, sequence (P29350 whole entry): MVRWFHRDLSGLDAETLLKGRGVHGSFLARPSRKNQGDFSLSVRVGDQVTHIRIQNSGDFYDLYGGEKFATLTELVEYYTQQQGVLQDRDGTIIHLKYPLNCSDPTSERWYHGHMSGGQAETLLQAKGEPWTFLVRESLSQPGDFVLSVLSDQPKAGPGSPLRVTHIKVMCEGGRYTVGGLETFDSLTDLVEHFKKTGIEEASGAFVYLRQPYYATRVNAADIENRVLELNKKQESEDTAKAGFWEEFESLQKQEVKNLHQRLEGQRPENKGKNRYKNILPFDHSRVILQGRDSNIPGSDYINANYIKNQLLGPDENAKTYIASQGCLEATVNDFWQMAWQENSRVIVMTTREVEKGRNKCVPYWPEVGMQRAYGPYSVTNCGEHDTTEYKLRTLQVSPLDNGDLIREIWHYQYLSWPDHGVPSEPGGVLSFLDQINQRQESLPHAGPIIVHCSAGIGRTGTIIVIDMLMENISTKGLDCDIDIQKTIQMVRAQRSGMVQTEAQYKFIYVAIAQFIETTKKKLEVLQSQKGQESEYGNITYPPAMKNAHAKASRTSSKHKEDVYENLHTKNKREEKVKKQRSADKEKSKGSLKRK

For `C[C@H](CCCO)[C@H]1CCC2C3CC=C4C(C)(C)C(N)CC[C@]4(C)C3CC[C@@]21C` (stereo partly shown) [Compound 5aa], the melting point (commonly the temperature of the solid-liquid transition) was in the range of 163.5 to 166.3 °C. Also, in data set [1], a half-maximal response (EC50) required 19.2 ± 4.59 µM and the “Maximum Activation Fold” value is listed as 6.03 ± 0.87 fold.
Consider `C[C@H](CCCO)[C@H]1CCC2C3CC=C4C(C)(C)C(NCCO)CC[C@]4(C)C3CC[C@@]21C` (stereo partly shown) [Compound 5ab], for which the melting point was 184.3 to 187.5 °C. Moreover, a half-maximal response in data set [1] (EC50) required 39.1 ± 3.7 µM.
Taken in the same sequence, the figures for `C[C@H](CCCO)[C@H]1CCC2C3CC=C4C(C)(C)C(NCCCO)CC[C@]4(C)C3CC[C@@]21C` (stereo partly shown) [Compound 5ac] were 183.5 to 186.8 °C and 30.7 ± 3.8 µM.
With `C[C@H](CCCO)[C@H]1CCC2C3CC=C4C(C)(C)C(NCCCCl)CC[C@]4(C)C3CC[C@@]21C` (stereo partly shown) [Compound 5ad], the melting point is 162.7 to 165.5 °C. Besides, in data set [1], the 50% effective concentration (EC50) (usually the concentration that produces a half-maximal response) stood at 47.34 ± 0.34 µM.
Taken in the same sequence, the figures for `CCCNC1CC[C@@]2(C)C(=CCC3C2CC[C@@]2(C)C3CC[C@@H]2[C@H](C)CCCO)C1(C)C` (stereo partly drawn) [Compound 5ae, (4R)-4-((10R,13R,17R)-4,4,10,13-tetramethyl-3-(propylamino)-tetradecahydro-1H-cyclopenta[a]phenanthren-17-yl)pentan-1-ol] were 147.5 to 150.4 °C and more than 50 µM.
The compound `C[C@H](CCCO)[C@H]1CCC2C3CC=C4C(C)(C)C(N5CCC5)CC[C@]4(C)C3CC[C@@]21C` (stereo partly shown) [Compound 5af] displayed a melting point of 174.9 to 177.6 °C. Moreover, the half-maximal effective concentration (EC50) in data set [1] was more than 50 µM.
For `C[C@H](CCCO)[C@H]1CCC2C3C(=O)C=C4C(C)(C)C(N)CC[C@]4(C)C3CC[C@@]21C` (stereo partly drawn) [Compound 5ag, (10R,13R,17R)-3-amino-17-((R)-5-hydroxypentan-2-yl)-4,4,10,13-tetramethyl-tetradecahydro-7H-cyclopenta[a]phenanthren-7-one], the melting point lay in the range of 151.3 to 153.7 °C. Further, in data set [1], the response was half-maximal at 33.8 ± 2.93 µM (EC50) and the “Maximum Activation Fold” value was 1.84 ± 0.11 fold.
Taken in the same sequence, the figures for `C[C@H](CCCO)[C@H]1CCC2C3C(=NO)C=C4C(C)(C)C(N)CC[C@]4(C)C3CC[C@@]21C` (stereo partly drawn) [Compound 5ah, (10R,13R,17R)-3-amino-17-((R)-5-hydroxypentan-2-yl)-4,4,10,13-tetramethyl-tetradecahydro-7H-cyclopenta[a]phenanthren-7-oxime] were 218.3 to 219.9 °C, 34.4 ± 2.47 µM and 2.13 ± 0.28 fold.
Turning to `C[C@H](CCCO)[C@H]1CCC2C3C(O)C=C4C(C)(C)C(N)CC[C@]4(C)C3CC[C@@]21C` (stereo partly shown) [Compound 5ai], the melting point was 171.4 to 173.2 °C. The EC50 in data set [1] was more than 50 µM.
Taken in the same sequence, the figures for `C[C@H](CCCO)[C@H]1CCC2C3C(N)C=C4C(C)(C)C(N)CC[C@]4(C)C3CC[C@@]21C` (stereo partly shown) [Compound 5aj] were 178.7 to 180.2 °C and more than 50 µM.
Consider `C[C@H](CCCO)[C@H]1CCC2C3=CC=C4C(C)(C)C(N)CC[C@]4(C)C3CC[C@@]21C` (stereo partly drawn) [Compound 5ak, (4R)-4-((10R,13R,17R)-3-amino-4,4,10,13-tetramethyl-2,3,4,9,10,11,12,13,14,15,16,17-dodecahydro-1H-cyclopenta[a]phenanthren-17-yl)pentan-1-ol], for which the melting point fell in the range of 179.5 to 181.3 °C. Also, in data set [1], a half-maximal response (EC50) required 20 ± 3.34 µM; the “Maximum Activation Fold” value is 7.74 fold and 7.74 ± 0.20 fold.
In the case of `CNC(=O)CC[C@@H](C)[C@H]1CCC2C3CC=C4C(C)(C)C(N)CC[C@]4(C)C3CC[C@@]21C` (stereo partly shown) [Compound 5al], the melting point is more than 300 °C. Further, in data set [1], the EC50 turned out to be 40.5 ± 6.58 µM and the “Maximum Activation Fold” value is 6.42 ± 0.28 fold.
As to `CCCNCCC[C@@H](C)[C@H]1CCC2C3CC=C4C(C)(C)C(N)CC[C@]4(C)C3CC[C@@]21C` (stereo partly drawn) [Compound 5am, (10R,13R,17R)-4,4,10,13-tetramethyl-17-((R)-5-(propylamino)pentan-2-yl)-tetradecahydro-1H-cyclopenta[a]phenanthren-3-amine], the melting point is more than 300 °C. Further, the EC50 in data set [1] was more than 50 µM.
Take `CC(O)CC[C@@H](C)[C@H]1CCC2C3CC=C4C(C)(C)C(N)CC[C@]4(C)C3CC[C@@]21C` (stereo partly shown) [Compound 5an]: the melting point is more than 300 °C. Besides, in data set [1], the half-maximal effective concentration (EC50) stood at 17.6 ± 1.75 µM and the “Maximum Activation Fold” value came to 6.33 ± 0.01 fold.
`CCC(O)CC[C@@H](C)[C@H]1CCC2C3CC=C4C(C)(C)C(N)CC[C@]4(C)C3CC[C@@]21C` (stereo partly shown) [Compound 5ao] registered a melting point of more than 300 °C. In addition, in data set [1], the midpoint of the response, the EC50, lay at 15.5 ± 4.38 µM and the “Maximum Activation Fold” value amounted to 6.59 ± 0.48 fold.
For `CCCC(O)CC[C@@H](C)[C@H]1CCC2C3CC=C4C(C)(C)C(N)CC[C@]4(C)C3CC[C@@]21C` (stereo partly shown) [Compound 5ap] the same measures were more than 300 °C, 38.1 ± 3.76 µM and 6.65 ± 0.35 fold.
The compound `CC(C)C(O)CC[C@@H](C)[C@H]1CCC2C3CC=C4C(C)(C)C(N)CC[C@]4(C)C3CC[C@@]21C` (stereo partly drawn) [Compound 5aq, (6R)-6-((10R,13R,17R)-3-amino-4,4,10,13-tetramethyl-tetradecahydro-1H-cyclopenta[a]phenanthren-17-yl)-2-methylheptan-3-ol] displayed a melting point of more than 300 °C. Also, in data set [1], the concentration giving a half-maximal response (EC50) was 22.1 ± 3.73 µM and the “Maximum Activation Fold” value is given as 6.32 ± 0.34 fold.
For `C=CCC(O)CC[C@@H](C)[C@H]1CCC2C3CC=C4C(C)(C)C(N)CC[C@]4(C)C3CC[C@@]21C` (stereo partly drawn) [Compound 5ar, (7R)-7-((10R,13R,17R)-3-amino-4,4,10,13-tetramethyl-tetradecahydro-1H-cyclopenta[a]phenanthren-17-yl)oct-1-en-4-ol] the same measures were 250.4 to 252.6 °C, 12.9 ± 0.75 µM and 6.94 ± 0.17 fold.
Taken in the same sequence, the figures for `C[C@H](CCC(C)(C)O)[C@H]1CCC2C3CC=C4C(C)(C)C(N)CC[C@]4(C)C3CC[C@@]21C` (stereo partly drawn) [Compound 5as, (5R)-5-((10R,13R,17R)-3-amino-4,4,10,13-tetramethyl-tetradecahydro-1H-cyclopenta[a]phenanthren-17-yl)-2-methylhexan-2-ol] were 215.2 to 217.6 °C, 22 ± 3.84 µM and 5.73 ± 0.32 fold.
Taken in the same sequence, the figures for `CCC(O)(CC)CC[C@@H](C)[C@H]1CCC2C3CC=C4C(C)(C)C(N)CC[C@]4(C)C3CC[C@@]21C` (stereo partly shown) [Compound 5at] were more than 300 °C, 12.9 ± 0.3 µM and 6.50 ± 0.12 fold.
`CCCC(O)(CCC)CC[C@@H](C)[C@H]1CCC2C3CC=C4C(C)(C)C(N)CC[C@]4(C)C3CC[C@@]21C` (stereo partly shown) [Compound 5au] displayed a melting point of 242.6 to 244.9 °C. Moreover, in data set [1], the 50% effective concentration (EC50) came out at 24.4 ± 3.61 µM and the “Maximum Activation Fold” value came out at 6.42 ± 0.28 fold.
Taken in the same sequence, the figures for `C=CCC(O)(CC=C)CC[C@@H](C)[C@H]1CCC2C3CC=C4C(C)(C)C(N)CC[C@]4(C)C3CC[C@@]21C` (stereo partly drawn) [Compound 5av, (7R)-4-allyl-7-((10R,13R,17R)-3-amino-4,4,10,13-tetramethyl-tetradecahydro-1H-cyclopenta[a]phenanthren-17-yl)oct-1-en-4-ol] were 235.5 to 237.4 °C, 35.8 ± 1.92 µM and 5.90 ± 0.42 fold.
